What was measured:
[1] = system: human urothelial cancer cell strain KU7; test: cell survival assay (MTS assay) after addition of thapsigargin; format: cell-based; conditions: thapsigargin 0.1-2.5 μM, 72 hours after addition
Procedure: To a culture solution prepared by culturing, for 24 hours, cells transfected with RNA in the same manner as in Example 2, thapsigargin (Sigma Corporation), which is an endoplasmic reticulum stress agent, was added so that predetermined concentrations (0.1 μM, 0.5 μM, 1 μM, and 2.5 μM) were achieved.
Seventy-two hours after the addition of thapsigargin, a cell survival assay (MTS assay: with use of a kit from Promega KK) was performed to obtain the number of cells that survived, and the ratio (cell survival rate) of the number of cells that survived in the presence of thapsigargin to the number of cells that survived in the absence of thapsigargin was calculated.

[2] = system: human urothelial cancer cell strain KU7; test: TUNEL apoptosis detection after RNA transfection; format: cell-based; conditions: 72 hours of culture after lipofection, versus control RNA
Procedure: Control RNA (QIAGEN) or ubiquilin 2 siRNA was introduced into human urothelial cancer cell strain KU7 (donated by the School of Urology at the Department of Medicine in Keio University). The ubiquilin 2 siRNA used was siRNA synthesized with 5′-[…]-3′ (SEQ ID NO. 3) of the ubiquilin 2 gene as a Target sequence. The introduction of each RNA was performed by a Lipofection technique with a Lipofectamine™ RNAimax (Life Technologies Japan Ltd.).
After 72 hours of culture of the cells transfected with the RNA, TUNEL positive cells (i.e. cells having undergone apoptosis) were detected under a fluorescence microscope by the TUNEL (Terminal deoxynucleotidyl transferase dUTP nick end labeling) technique, and the percentage of the TUNEL positive cells to the total number of cells was calculated.

Molecule | cytotoxicity (cell survival rate) ([1]; KU7 cells transfected with control RNA (ubiquilin 2 gene not knocked down)) | cytotoxicity (cell survival rate) ([1]; KU7 cells transfected with ubiquilin 2 siRNA (ubiquilin 2 gene knocked down)) | apoptosis (TUNEL positive cells to DAPI positive cells, apoptosis rate) [2]
C/C=C(/C)C(=O)O[C@H]1C(C)=C2[C@H]([C@@H]1OC(=O)CCCCCCC)[C@@](C)(OC(C)=O)C[C@H](OC(=O)CCC)[C@@]1(O)[C@H]2OC(=O)[C@@]1(C)O [thapsigargin] | hardly exhibits cytotoxicity | markedly enhanced cytotoxicity | –
ubiquilin 2 siRNA: siRNA synthesized with 5′-TCCCATAAAGAGACCCTAATA-3′ (SEQ ID NO. 3) of the ubiquilin 2 gene as a Target sequence (siRNA sequence not given here, only target site) | – | – | apoptosis (death of cells) was induced in the cancer cells
